Test results published in patent US7879823B2, “Topical anti-cancer compositions and methods of use thereof” (Johnson & Johnson Consumer Companies, priority 1999, dated 2011).

B1: STI: trypsin inhibitor (STI; 0.8 mg; T9003, Sigma) in 100 ul liposomes (protein, UniProt P01070 25-205, looked up)
Trypsin inhibitor A: DFVLDNEGNPLENGGTYYILSDITAFGGIRAAPTGNERCPLTVVQSRNELDKGIGTIISSPYRIRFIAEGHPLSLKFDSFAVIMLCVGIPTEWSVVEDLPEGPAVKIGENKDAMDGWFRLERVSDDEFNNYKLVFCPQQAEDDKCGDIGISIDHDDGTRRLVVSKNKPLVVQFQKLDKESL
modifications: in liposomes
notes: 0.8 mg; T9003, Sigma) in 100 ul liposomes
B2: BBI: Bowman-Birk protease inhibitor (BBI; 0.8 mg; T97770, Sigma) in 100 ul liposomes (protein, UniProt P01055 40-110, looked up)
Bowman-Birk type proteinase …: DDESSKPCCDQCACTKSNPPQCRCSDMRLNSCHSACKSCICALSYPAQCFCVDITDFCYEPCKPSEDDKEN
modifications: in liposomes
notes: 0.8 mg; T97770, Sigma) in 100 ul liposomes

Tested on: Skin Tumors in SKH-1 Mice Previously Treated with Ultraviolet B Light
Test: Development of skin tumors in high-risk SKH-1 mice previously treated with UVB, topical application
Type: in vivo
Settings: for Effect on tumor growth / tumor progression (tumor volume per mouse), in words: daily topical treatment, 21 weeks of the treatment phase, relative to control; for Percent of mice with tumors / Tumor volume per mouse / Tumor volume per tumor / Tumors per mouse: topical once a day 5 days per week
Description: Co. (Byran, Ohio). […] Controls include vehicle alone and an unrelated protein (BSA). […] Louis, Mo.). Acetone was from Fisher Scientific (Springfield, N.J.).

Molecule | Percent of mice with tumors (week 0) | Tumor volume per mouse (week 0) [mm^3] | Tumor volume per tumor (week 0) [mm^3] | Tumors per mouse (week 0) | Percent of mice with tumors (week 6) [%] | Tumor volume per mouse (week 6) [mm^3] | Tumor volume per tumor (week 6) [mm^3] | Tumors per mouse (week 6) | Tumor volume per mouse (week 9) [mm^3] | Tumor volume per tumor (week 9) [mm^3] | Tumors per mouse (week 9) | Percent of mice with tumors (week 12) [%] | Tumor volume per mouse (week 12) [mm^3] | Tumor volume per tumor (week 12) [mm^3] | Tumors per mouse (week 12) | Percent of mice with tumors (week 15) [%] | Tumor volume per mouse (week 15) [mm^3] | Tumor volume per tumor (week 15) [mm^3] | Tumors per mouse (week 15) | Percent of mice with tumors (week 18) [%] | other results
Cn1c(=O)c2c(ncn2C)n(C)c1=O [Caffeine, caffeine] | 0 | 0 | 0 | 0 | 16.7 | 0.2 ± 0.1 | 1.3 ± 0.7 | 0.2 ± 0.1 | 0.7 ± 0.5 | 3.4 ± 2.2 | 0.2 ± 0.1 | 50.0 | 4.0 ± 1.9 | 3.2 ± 0.8 | 1.3 ± 0.4 | 56.7 | 6.7 ± 2.2 | 3.2 ± 0.6 | 2.1 ± 0.5 | 80.0 | Effect on tumor growth / tumor progression (tumor volume per mouse), in words: marked delay in tumor progression; Number of tumors per mouse, in words (following topical treatment): reduced; Percent of tumor-bearing mice, in words (following topical treatment): reduced; Tumor volume per tumor, in words (following topical treatment): reduced; Tumor volume per mouse (week 18): 22.1 ± 6.2 mm^3; Tumor volume per tumor (week 18): 6.2 ± 1.3 mm^3; Tumors per mouse (week 18): 3.6 ± 0.6; Percent of mice with tumors (week 21): 76.7%; Tumor volume per mouse (week 21): 21.5 ± 6.0 mm^3; Tumor volume per tumor (week 21): 5.3 ± 1.0 mm^3; Tumors per mouse (week 21): 4.0 ± 0.7
BSA in liposomes: bovine serum albumin (0.8 mg) in 100 ul liposomes; unrelated protein control | 0 | 0 | 0 | 0 | 20.0 | 0.6 ± 0.5 | 2.5 ± 1.9 | 2.0 ± 0.1 | 2.9 ± 1.4 | 2.7 ± 1.2 | 1.1 ± 0.3 | 80.0 | 9.1 ± 3.1 | 3.5 ± 1.0 | 2.6 ± 0.6 | 90.0 | 21.4 ± 6.6 | 4.0 ± 0.7 | 5.3 ± 0.8 | 90.0 | Percent of mice with tumors (week 9): 50.0%; Tumor volume per mouse (week 18): 41.1 ± 9.7 mm^3; Tumor volume per tumor (week 18): 6.3 ± 1.0 mm^3; Tumors per mouse (week 18): 6.5 ± 0.9; Percent of mice with tumors (week 21): 90.0%; Tumor volume per mouse (week 21): 44.7 ± 11.6 mm^3; Tumor volume per tumor (week 21): 6.3 ± 1.0 mm^3; Tumors per mouse (week 21): 7.1 ± 0.8
B1 | 0 | 0 | 0 | 0 | 16.7 | 0.8 ± 0.6 | 3.5 ± 1.9 | 0.2 ± 0.1 | 2.6 ± 1.4 | 3.0 ± 1.4 | 0.9 ± 0.2 | 46.7 | 9.4 ± 3.9 | 4.8 ± 1.3 | 1.9 ± 0.5 | 55.2 | 17.8 ± 7.9 | 5.8 ± 2.1 | 3.1 ± 0.7 | 63.3 | Effect on tumor growth / tumor progression (tumor volume per mouse), in words: unexpected and significant effect on tumor progression; Percent of mice with tumors (week 9): 41.4%; Tumor volume per mouse (week 18): 30.7 ± 11.9 mm^3; Tumor volume per tumor (week 18): 7.3 ± 2.2 mm^3; Tumors per mouse (week 18): 4.2 ± 0.9; Percent of mice with tumors (week 21): 80.0%; Tumor volume per mouse (week 21): 48.7 ± 23.3 mm^3; Tumor volume per tumor (week 21): 8.6 ± 3.2 mm^3; Tumors per mouse (week 21): 5.6 ± 0.9
B2 | 0 | 0 | 0 | 0 | 30.0 | 0.3 ± 0.1 | 0.9 ± 0.3 | 0.4 ± 0.1 | 1.0 ± 0.7 | 1.7 ± 0.8 | 0.6 ± 0.2 | 50.0 | 3.7 ± 1.8 | 2.4 ± 0.8 | 1.5 ± 0.4 | 66.7 | 9.0 ± 2.4 | 4.1 ± 0.8 | 2.2 ± 0.4 | 76.7 | Percent of mice with tumors (week 9): 27.6%; Tumor volume per mouse (week 18): 19.0 ± 4.6 mm^3; Tumor volume per tumor (week 18): 5.9 ± 1.3 mm^3; Tumors per mouse (week 18): 3.2 ± 0.6; Percent of mice with tumors (week 21): 90.0%; Tumor volume per mouse (week 21): 33.2 ± 9.6 mm^3; Tumor volume per tumor (week 21): 7.4 ± 2.0 mm^3; Tumors per mouse (week 21): 4.5 ± 0.6
